From patent publication US9688689B2, “Compounds and compositions for inducing chondrogenesis” (Novartis AG, priority 2014, dated 2017) come the findings set out here.

The experiment deals with Primary articular chondrocytes from normal bovine knees. Put plainly: NO Release Assay in Bovine Chondrocytes (inhibition of cytokine induced NO release, Greiss reagent). The experiment is classed as cell-based. As to conditions: Bos taurus, Chondrocyte; 20 ng/ml TNFα and 10 ng/ml human oncostatin M, 48 hours; read-out: NO Inh. IC50. Here is the method:
The compounds of the present invention were evaluated in two functional assays to assess their chondrogenesis activities (Type II Collagen Expression) and chondrocyte protective activities (NO release assay).
The assay was described in Johnson, K., et al., (2012) Science 336, 717-721. Chondrocytes release NO during OA pathogenesis. This assay measures the inhibition of nitric oxide release by the treated compound (an indicator of chondro-protection) Primary articular chondrocytes from normal bovine knees (Animal Technologies, Tyler, Tex.) were isolated after dissection and collagenase digestion (Worthington Biochemical) of the tibial plateau and femoral condyle articular cartilage. The cells were initially plated at 80-90% confluency after isolation. Primary chondrocytes were cultured in high-glucose Dulbecco's modified Eagle's medium (DMEM) supplemented with 10% fetal bovine serum (FBS), 1% L-glutamine, 100 units/ml of penicillin, and 50 μg/ml of streptomycin (Life Technologies, Carlsbad, Calif.) and maintained at 37° C. in the presence of 5% CO2 for 7 days prior to initiation of each experiment. During the 7-day culture period, the cells adhered and established a chondrocyte-like appearance that was maintained throughout the experimental period. Functional studies on chondrocytes were performed in high-glucose DMEM with no FBS unless indicated otherwise.
After one week of culture, 8500 cells were plated per well in Greiner 384 well white clear bottom plates in growth media. Following 24 hours of culture, the media was removed and replaced with serum free DMEM containing 20 ng/ml TNFα and 10 ng/ml human oncostatin M (inflammatory mediators). […] 20 μl of the supernatant was mixed with 20 μl of the Greiss reagent (Promega # G2930) and quantitated at 540 nm. The Greiss reagent part A (1% Sulfanilamide in 5% phosphoric acid) was mixed at a 1:1 ration with Greiss reagent part B (0.1% N-1-napthylethylenediamine dihydrochloride in water) immediately prior to added to the culture supernatant.

Some results are limits rather than exact numbers.

What is called IC50 is the concentration needed to halve the response being measured. Turning to `O=C(Nc1ccc(Cl)c(Cl)c1)[C@@H]1[C@@H](c2ccncc2)[C@@H]2CC[C@H]1O2` (single isomer, unassigned) [Compound 71], the IC50 was greater than 29 µM.
The figure for `O=C(Nc1ccc(Cl)c(Cl)c1)[C@H]1[C@H](c2ccncc2)[C@H]2CC[C@@H]1O2` (single isomer, unassigned) [Compound 103] is greater than 29 µM; for `Nc1cc([C@@H]2[C@@H](C(=O)Nc3ccc(Cl)c(Cl)c3)[C@H]3CC[C@@H]2O3)ccn1` (single isomer, unassigned) [Compound 107] it is greater than 33 µM.
As to `Nc1cc([C@@H]2[C@H](C(=O)Nc3ccc(Cl)c(Cl)c3)[C@H]3CC[C@@H]2O3)ccn1` (single isomer, unassigned) [Compound 115], the IC50 was 26 µM.
For the compound `CCOC(=O)c1ccccc1NC(=O)[C@H]1[C@@H](c2nc(-c3ccc(Cl)cc3)no2)[C@@H]2CC[C@H]1O2` [Compound 2], the IC50 is greater than 30 µM.
With `Nc1cc([C@@H]2[C@@H](C(=O)Nc3ccc(Cl)c(Cl)c3)[C@H]3CC[C@@H]2O3)ccn1` [Compound 5], the IC50 was 16 µM.
Regarding `O=C(Nc1ccc(Cl)c(Cl)c1)[C@@H]1[C@H](c2ccncc2)[C@H]2CC[C@@H]1O2` [Compound 8], the concentration for half-maximal inhibition (IC50) is greater than 33 µM.
The result for `COC(=O)c1cc(-c2ccccc2)ccc1NC(=O)[C@H]1[C@@H](c2nc(-c3ccc(Cl)cc3)no2)[C@@H]2CC[C@H]1O2` [Compound 9] reads greater than 11.1 µM; that for `Nc1cc([C@H]2[C@H](C(=O)Nc3ccc(Cl)c(Cl)c3)[C@@H]3CC[C@H]2O3)ccn1` [Compound 10], 22 µM.
`O=C(Nc1ccc(Cl)c(Cl)c1)[C@H]1[C@@H](c2ccncc2)[C@@H]2CC[C@H]1O2` [Compound 11]: the IC50 was greater than 33 µM.
Take `CCOC(=O)c1ccc(NC(=O)[C@H]2[C@@H](c3nc(-c4ccc(Cl)cc4)no3)[C@@H]3CC[C@H]2O3)cc1` [Compound 17]: the half-inhibitory concentration (IC50) was greater than 11.1 µM.
Turning to `O=C(Nc1ccc(Cl)c(F)c1)[C@@H]1[C@H](c2ccncc2)[C@@H]2CC[C@H]1O2` [Compound 18], the IC50 was greater than 33 µM.
For `N#Cc1cc([C@H]2[C@@H](C(=O)Nc3ccc(-c4ccccc4F)c(F)c3)[C@H]3CC[C@@H]2O3)ccn1` [Compound 20], the IC50 is greater than 33 µM.
The figure for `COC(=O)c1cc(Cl)ccc1NC(=O)[C@H]1[C@H](c2ccncc2)[C@@H]2CC[C@H]1O2` [Compound 24] is greater than 33 µM; for `O=C(Nc1ccc(-c2ccccc2Cl)c(F)c1)[C@H]1[C@H](c2ccncc2)[C@@H]2CC[C@H]1O2` [Compound 26] it is greater than 3.4 µM; for `O=C(Nc1ccc(-c2ccccc2F)c(Cl)c1)[C@@H]1C(c2cccc(C(F)(F)F)n2)[C@@H]2CC[C@H]1O2` (stereo partly shown) [Compound 27] it is greater than 33 µM.
For `O=C(Nc1ccc(-c2ccccc2Cl)c(F)c1)C1=C(c2ccnn2C2CCOCC2)[C@@H]2CCC1O2` [Compound 31], the 50% inhibitory concentration (IC50) is greater than 33 µM.
The figure for `Cc1cc(C2=C(C(=O)Nc3ccc(-c4ccccc4F)c(F)c3)C3CC[C@@H]2O3)ccn1` [Compound 32] is greater than 27 µM; for `O=C(Nc1ccc(Cl)c(F)c1)[C@H]1[C@H](c2ccncc2)[C@@H]2CC[C@H]1O2` [Compound 33] it is greater than 33 µM; for `O=C(Nc1cnc(-c2ccccc2)nc1)C1=C(c2ccncc2)C2CCC1O2` (stereo not shown) [Compound 38] it is greater than 33 µM.
`O=C(Nc1ccc(-c2ccccc2)c(Cl)c1)[C@H]1[C@H](c2ccncc2)[C@@H]2CC[C@H]1O2` [Compound 39]: the concentration for half-maximal inhibition (IC50) is greater than 33 µM.
Consider `O=C(Nc1cccc(Cl)c1F)[C@H]1[C@H](c2ccncc2)[C@@H]2CC[C@H]1O2` [Compound 41], for which the IC50 was greater than 33 µM.
`CCOC(=O)c1ccc(NC(=O)C2=C(c3cccc(C(F)(F)F)n3)[C@@H]3CCC2O3)cc1F` [Compound 43]: the IC50 was greater than 33 µM.
Regarding `O=C(Nc1ccc(-c2ccccc2F)c(F)c1)C1=C(c2ccnc(Cl)c2)[C@@H]2CCC1O2` [Compound 44], the IC50 was determined as 28 µM.
On to `O=C(Nc1ccc(-c2ccccc2)c(Cl)c1)C1=C(c2ccn[nH]2)[C@@H]2CC[C@H]1O2` [Compound 47], for which the concentration for half-maximal inhibition (IC50) was determined as 18 µM.
With `Nc1cc(C2=C(C(=O)Nc3ccc(-c4ccccc4F)c(F)c3)C3CC[C@@H]2O3)ccn1` [Compound 49], the IC50 is greater than 33 µM.
Turning to `O=C(Nc1ccc(-c2ccccc2)c(Cl)c1)C1=C(c2ccnn2C2CCOCC2)[C@@H]2CCC1O2` [Compound 50], the IC50 is 14 µM.
For `O=C(Nc1cccc(OC(F)(F)F)c1F)C1=C(c2ccncc2)[C@@H]2CCC1O2` [Compound 51], the IC50 was 26 µM.
The figure for `O=C(Nc1ccc(-c2ccccc2F)c(F)c1)[C@H]1[C@H](c2ccncc2)[C@@H]2CC[C@H]1O2` [Compound 52] is greater than 33 µM.
Take `COC(=O)c1cc(Cl)ccc1NC(=O)C1=C(c2ccncc2)[C@@H]2CCC1O2` [Compound 54]: the IC50 was greater than 33 µM.
As for `N#Cc1cc(C2=C(C(=O)Nc3ccc(-c4ccccc4F)c(F)c3)C3CC[C@@H]2O3)ccn1` [Compound 56], the IC50 is greater than 33 µM.
The figure for `Cc1cc(NC(=O)C2=C(c3ccncc3)[C@@H]3CCC2O3)nn1-c1ccccc1` [Compound 61] is greater than 33 µM; for `O=C(Nc1ccc(-c2ccccc2F)c(F)c1)C1=C(c2ccnn2C2CCOCC2)C2CCC1O2` (stereo not shown) [Compound 62] it is 15 µM; for `Nc1cc([C@H]2[C@@H](C(=O)Nc3ccc(-c4ccccc4F)c(F)c3)[C@H]3CC[C@@H]2O3)ccn1` [Compound 64] it is greater than 33 µM.
For `Cn1cc2cc([C@H]3[C@@H](C(=O)Nc4ccc(-c5ccccc5F)c(F)c4)[C@H]4CC[C@@H]3O4)ccc2n1` [Compound 65], the IC50 is greater than 33 µM.
For the compound `CCOC(=O)c1ccc(NC(=O)C2=C(c3ccncc3)C3CCC2O3)cc1F` (stereo not shown) [Compound 67], the IC50 is greater than 33 µM.
As for `Cc1cc([C@@H]2[C@@H](C(=O)Nc3ccc(Cl)c(Cl)c3)[C@H]3CC[C@@H]2O3)ccn1` [Compound 69], the half-inhibitory concentration (IC50) was 21 µM.
Consider `O=C(Nc1ccc(-c2ccc(F)cc2F)c(F)c1)[C@H]1[C@H](c2ccncc2)[C@@H]2CC[C@H]1O2` [Compound 70], for which the IC50 is greater than 33 µM.
`O=C(Nc1ccc(-c2ccccc2)cc1)[C@@H]1[C@H](c2ccncc2)[C@@H]2CC[C@H]1O2` [Compound 74]: the half-inhibitory concentration (IC50) is greater than 33 µM.
Turning to `O=C(Nc1ccc(-c2ccccc2Cl)c(F)c1)[C@@H]1[C@@H](c2ccncc2)[C@@H]2CC[C@H]1O2` [Compound 76], the IC50 was greater than 33 µM.
In the case of `CN(C)c1ncc([C@H]2[C@@H](C(=O)Nc3ccc(-c4ccccc4F)c(F)c3)[C@H]3CC[C@@H]2O3)cn1` [Compound 78], the IC50 is 0.24 µM.
Regarding `O=C(Nc1ccc(-c2ccccc2F)c(F)c1)[C@@H]1[C@@H](c2ccccn2)[C@@H]2CC[C@H]1O2` [Compound 80], the IC50 is greater than 17 µM.
For `O=C(Nc1ccc(-c2ccccc2)c(Cl)c1)[C@@H]1[C@@H](c2cccc(C(F)(F)F)n2)[C@@H]2CC[C@H]1O2` [Compound 83], the half-maximal inhibitory concentration (IC50) is greater than 33 µM.
For the compound `O=C(Nc1ccc(-c2ccccc2F)c(F)c1)[C@@H]1[C@@H](c2cccc(C(F)(F)F)n2)[C@@H]2CC[C@H]1O2` [Compound 86], the concentration for half-maximal inhibition (IC50) was greater than 33 µM.
Consider `O=C(Nc1ccc(-c2ccccc2F)c(F)c1)[C@@H]1[C@H](c2cc(Cl)nc(Cl)c2)[C@@H]2CC[C@H]1O2` [Compound 87], for which the IC50 was greater than 33 µM.
For the compound `Cn1nc(C(F)(F)F)cc1[C@@H]1[C@@H](C(=O)Nc2ccc(Cl)c(Cl)c2)[C@H]2CC[C@@H]1O2` [Compound 89], the IC50 is greater than 33 µM.
